Like-named read-outs stand apart in the source and are kept apart here.
How the values were obtained:
[1] = test system: palmitoylation of SHH in HEK293a SHH+ cells; assay: Cell-based YnPal metabolic tagging assay; details: for IC50: HEK293-A, HEK293a SHH+ cells
Protocol: We first quantified the direct impact of previously reported HHAT inhibitors on palmitoylation of SHH using a cell-based metabolic tagging assay.[27],[36] In this assay, HEK293a SHH^+ cells were incubated with varying concentrations of inhibitors in the presence of alkyne palmitic acid derivative YnPal (Figure 5A).[35] Following cell lysis and bioorthogonal derivatization of palmitoylated proteins with capture reagent azide-TAMRA-biotin (AzTB)^67 using a copper catalyzed azide–alkyne cycloaddition (CuAAC) reaction, AzTB-labeled SHH is shifted to higher apparent molecular weight in sodium dodecyl sulfate polyacrylamide gel electrophoresis (SDS-PAGE), thereby enabling quantification of acylated SHH by α-SHH immunoblotting (compound 2, 17, and 22) or fluorescence imaging (compound 24, 28, and 30; SI, Figure S5–S6).[42]
HEK293a SHH^+ cells were plated at 500,000 cells/well of a 6-well plate in a volume of 3 mL/well and cultured for 24 h as described. Cells were treated with DMSO vehicle, or RUSKI compounds in DMSO (0.016–10 μM final). After 1 h, 3 μL of YnPal (20 mM DMSO stock; 20 μM final) were added and the cells were cultured for another 6 h. Subsequently, cells were washed with PBS and lysed using PBS supplemented with 1% Triton, 0.1% SDS and Complete EDTA-free protease inhibitor cocktail (Roche Diagnostics). Cells were scraped off the plates and lysates centrifuged at 13 000g for 10 min at 4 °C to remove cell debris. Protein concentration was determined using the DC Protein Assay (Bio-Rad) following the manufacturer’s procedure.
The click reaction in cell lysate was performed as previously described.[42] Briefly, 1 μL AzTB (10 mM in DMSO, 100x), 2 μL CuSO4 (50 mM in H2O, 50x), 2 μL tris(2 carboxyethyl)phosphine hydrochloride (TCEP) (50 mM in H2O, 50×), and 1 μL tris[(1-benzyl-1H-1,2,3-triazol-4-yl)methyl]amine (TBTA, 10 mM in DMSO, 100×) were mixed. Then 6 μL of this click mixture were added to 100 μL of lysate, adjusted with lysis buffer to a protein concentration of 1 mg/mL. The click reaction was shaken at RT for 1 h. Subsequently, proteins were precipitated by adding methanol, chloroform, and water at a ratio of 2:0.5:1 to remove click reagents and excess of AzTB. The mixture was centrifuged (13 000g, 5 min at 4 °C) and the methanol and water containing top layer removed. Following the addition of an excess of methanol, the precipitated proteins were isolated by centrifugation (13 000g, 10 min at 4 °C) and washed twice with methanol. The protein pellets were air-dried and redissolved in PBS containing 0.2% SDS and 0.1 mM DTT using sonication, and adjusted to a final protein concentration of 1 mg/mL.
For enrichment of YnPal-labeled proteins, 100 μg of lysate were incubated with 30 μL of prewashed (3 × 500 μL of 0.2% SDS in PBS) Dynabeads MyOne Streptavidin C1 beads (Invitrogen) for 1 h at room temperature. Beads ware washed twice with 500 μL of 0.2% SDS in PBS and boiled for 10 min in 15 μL of PBS containing SDS-PAGE sample buffer. The entire pull-down sample and 10 μg of total lysate and supernatant fractions were loaded on a 15% SDS-PAGE gel. Fluorescence was scanned using a Typhoon imager (GE Healthcare; excitation laser: 532 nm, emission filter: LPG (575–700 nm); PMT: 750 V).
Proteins were transferred to nitrocellulose membrane using a wet transfer apparatus (100 V, 1 h). Membranes were blocked with 5% BSA in TBS-T (0.1% Tween-20, 50 mM Tris, 150 mM NaCl, pH 7.5) for 1 h at room temperature, followed by overnight incubation with SHH H-160 primary antibody (Santa Cruz Biotechnology; sc-9024; 1:200 in TBS-T + 0.5% BSA) or α-tubulin primary antibody (Santa Cruz Biotechnology; sc-8035; 1:200 in TBS-T + 0.5% BSA) at 4 °C. Membranes were washed with TBS-T and further incubated at RT for 1 h with the appropriate secondary antibody (HRP conjugated goat-antimouse IgG (H+L) or goat-antirabbit IgG (H+L); Advansta; 1:10,000 in TBS-T + 0.5% BSA). […]

[2] = test system: HH signaling (HEK293a SHH+ conditioned media on SHH-Light2 cells); assay: Light2 dual-luciferase cell-based HH signaling assay (Firefly)
Protocol: Subsequently, the effect of analogues on HH signaling was investigated using a cellular luciferase reporter assay. Light2 cells derived from NIH3T3 cells constitutively express Renilla luciferase as an internal control for cell density alongside Firefly luciferase under the control of a HH-responsive Gli promoter.[43] HEK293a SHH^+ cells were incubated with varying inhibitor concentrations and SHH-containing conditioned media transferred to the NIH3T3-Light2 cells to mimic paracrine signaling[30],[35] (Figure 6A).
The Light2 cell-based signaling assay has been described previously.[35] Briefly, HEK293a SHH^+ cells were plated at 120,000 cells/well of a 12-well plate in a volume of 1 mL/well and cultured as described above. After 24 h, cells were washed with PBS, followed by addition of 1 mL of media containing 0.2% DMSO or varying inhibitor concentrations in DMSO (0.041–30 μM final). Additionally, SHH-Light2 cells were plated at 20,000 cells/well of a 96-well plate in 50 μL media. After another 24 h, 300 μL of the conditioned media were collected from each well of the treated HEK293a SHH^+ cells, centrifuged at 1000g for 10 min to remove detached cells and split into three wells of the SHH-Light2 cells (100 μL/well; 150 μL final volume in each well). The treated Light2 cells were cultured for another 48 h and subsequently washed with PBS. Firefly and Renilla luciferase activity was measured using the Dual-Luciferase reporter system (Promega Corporation, USA). Then 20 μL of 1× passive lysis buffer were added to each well. After 30 min at RT, 5 μL of each lysate were transferred to a white opaque 96-well plate. Then 20 μL/well of luciferase assay reagent II was added and the luminescence immediately recorded using a SpectraMax i3x plate reader (Molecular Devices LLC). Subsequently, 20 μL/well of 1× Stop&Glo substrate in Stop&Glo buffer was added and the luminescence immediately recorded for a second time. Data was evaluated using a “sigmoidal dose response (variable slope)” model in GraphPad Prism 5 (GraphPad Software, Inc.). The luminescence signal of the Firefly luciferase was normalized to the DMSO vehicle (100%) and the unconditioned media (0%) controls.

[3] = read-out: YnPal tagging IC50 (CI95)
[4] = Firefly luciferase, Light2 cells, read-out: HH signaling inhibition EC50 (CI95)

SMILES	IC50 [1, 3] [nM]	EC50 [2, 4] [nM]	IC50 ([1]; read-out: IC50, cellular YnPal labeling of SHH) [nM]	EC50 ([2]; Light2 luciferase reporter, read-out: EC50 against HH signaling) [nM]	inhibition of SHH tagging by YnPal [1]	effect on HH signaling [2]
Cc1cccc(C2c3ccsc3CCN2C(=O)CNCC(C)C)n1 (stereo not drawn) [Compound 24]	490	1180	–	–	–	–
CCC(C)CNCC(=O)N1CCc2sccc2C1c1cccc(C)c1 (stereo not drawn) [Compound 17]	570	1170	–	–	–	–
Cc1cccc([C@H]2c3ccsc3CCN2C(=O)CNCC(C)C)n1 [Compound 30]	–	100	76	99	–	–
CC(=O)N1CCc2sccc2C1c1ccccc1 (stereo not drawn) [Compound 5]	–	4560	–	–	–	–
Cc1cccc([C@@H]2c3ccsc3CCN2C(=O)CNCC(C)C)n1 [Compound 28]	> 10000	> 30000	–	–	inactive	inactive
C=CCNCC(=O)N1CCc2sccc2C1COc1ccc(Cl)cc1 (stereo not drawn) [Compound 2]	2350	–	–	–	–	–
CCC(C)CNCC(=O)N1CCc2sccc2C1c1cccc(C)n1 (stereo not drawn) [Compound 22]	1080	580	–	–	–	–

From paper PMC10823475, “Design, Synthesis, and Evaluation of Inhibitors of Hedgehog Acyltransferase” (Journal of Medicinal Chemistry, 2024)
